Values after ≈ are worked out from the molar mass of the structure shown.
Assays:
[1] = system: Staphylococcus aureus ATCC 33591; test: MIC by broth microdilution, Staphylococcus aureus DRCC 019 (MRSA); format: cell-based; conditions: DRCC 019 = ATCC 33591, MRSA, Mueller Hinton Broth, overnight 37° C., read-out: Antimicrobial Screening (MIC) Staphylococcus aureus 019 MRSA
Experimental: (§1) Minimum Inhibiton Concentrations (MICs) were determined by broth microdilution technique as per the guidelines prescribed om the fifth edition of Approved Standards, NCCLS document M7-A5 Vol 20-No 2, 2000 Villinova, Pa.
(§2) Initial stock solution of the test compound was prepared in DMSO. Subsequent two fold dilutions were carried out in sterile Mueller Hinton Broth (Difco) (MHB).
(§3) Frozen cultures stocks were inoculated into 50 mL sterile MHB in 250 mL Erlyn Meyer flasks.
(§4) Flasks were incubated for 4 to 5 h at 35° C. on a rotary shaker at 150 rpm. Inoculum was prepared by diluting the culture in sterile MHB to obtain a turbidity of 0.5 McFarland standard. This corresponds to 1–2×10^8 CFU/mL. The stock was further diluted in sterile broth to obtain 1–2×10^6 CFU/mL. 50 μl of the above diluted inoculum was added from 1–10 wells. The plates were incubated overnight at 37° C.

[2] = system: Enterococcus faecium NCTC 12202; test: MIC by broth microdilution, Enterococcus sp DRCC 154 (R); format: cell-based; conditions: NCTC12202; DRCC 154 = Enterococcus faecium NCTC 12202, R; Mueller Hinton Broth, overnight 37° C.; read-out: Antimicrobial Screening (MIC) Enterococcus sp 154 R
Experimental: as §1, §2, §3, §4

[3] = system: Staphylococcus aureus ATCC 29213; test: MIC by broth microdilution, Staphylococcus aureus DRCC 035 (S); format: cell-based; conditions: ATCC29213, DRCC 035 = ATCC 29213, S, Mueller Hinton Broth, overnight 37° C., read-out: Antimicrobial Screening (MIC) Staphylococcus aureus 035 S
Experimental: as §1, §2, §3, §4

[4] = system: Staphylococcus aureus ATCC 49951; test: MIC by broth microdilution, Staphylococcus aureus DRCC 213 (Smith S); format: cell-based; conditions: ATCC49951, DRCC 213 = ATCC 49951, Smith S, Mueller Hinton Broth, overnight 37° C., read-out: Antimicrobial Screening (MIC) Staphylococcus aureus 213 Smith S
Experimental: as §1, §2, §3, §4

[5] = system: Enterococcus faecalis NCTC 12201; test: MIC by broth microdilution, Enterococcus sp DRCC 153 (R); format: cell-based; conditions: NCTC12201; DRCC 153 = Enterococcus faecalis NCTC 12201, R; Mueller Hinton Broth, overnight 37° C.; read-out: Antimicrobial Screening (MIC) Enterococcus sp 153 R
Experimental: as §1, §2, §3, §4

[6] = system: Escherichia coli ATCC 25922; test: MIC by broth microdilution, E coli DRCC 18 (S); format: cell-based; conditions: ATCC25922; DRCC 018 = Escherichia coli ATCC 25922, S; Mueller Hinton Broth, overnight 37° C.; read-out: Antimicrobial Screening (MIC) E coli 18 S
Experimental: as §1, §2, §3, §4

[7] = system: Enterococcus faecalis ATCC 29212; test: MIC by broth microdilution, Enterococcus sp DRCC 034 (S); format: cell-based; conditions: ATCC29212; DRCC 034 = Enterococcus faecalis ATCC 29212, S; Mueller Hinton Broth, overnight 37° C.; read-out: Antimicrobial Screening (MIC) Enterococcus sp 034 S
Experimental: as §1, §2, §3, §4

Row | MIC [1] | MIC [2] | MIC [3] | melting point | MIC [4] | MIC [5] | MIC [6] | MIC [7] | Structure (SMILES)
1 | 1 µg/mL (≈ 2.83 µM) | 2 µg/mL (≈ 5.66 µM) | 1 µg/mL (≈ 2.83 µM) | 190 °C | 1 µg/mL (≈ 2.83 µM) | 1 µg/mL (≈ 2.83 µM) | 32 µg/mL (≈ 90.5 µM) | 2 µg/mL (≈ 5.66 µM) | CC(=S)NCc1cn(-c2cc(F)c(N3CCOCC3)c(F)c2)nn1 [Example 51, N-[1-(3,5-Difluoro-4-morpholin-4-yl-phenyl)-1H-[1,2,3]triazol-4-ylmethyl]-thioacetamide]
2 | 2 µg/mL (≈ 5.96 µM) | 2 µg/mL (≈ 5.96 µM) | 2 µg/mL (≈ 5.96 µM) | 192 °C | 2 µg/mL (≈ 5.96 µM) | 2 µg/mL (≈ 5.96 µM) | 256 µg/mL (≈ 763 µM) | 2 µg/mL (≈ 5.96 µM) | CC(=S)NCc1cn(-c2ccc(N3CCOCC3)c(F)c2)nn1 [Example 52, N-[1-(3-Fluoro-4-morpholin-4-yl-phenyl)-1H-[1,2,3]triazol-4-ylmethyl]-thioacetamide]
3 | 2 µg/mL (≈ 5.41 µM) | 4 µg/mL (≈ 10.8 µM) | 4 µg/mL (≈ 10.8 µM) | 135 °C | 2 µg/mL (≈ 5.41 µM) | 4 µg/mL (≈ 10.8 µM) | 32 µg/mL (≈ 86.6 µM) | 4 µg/mL (≈ 10.8 µM) | COC(=S)NCc1cn(-c2cc(F)c(N3CCOCC3)c(F)c2)nn1 [Example 54, [1-(3,5-Difluoro-4-morpholin-4-yl-phenyl)-1H-[1,2,3]triazol-4-ylmethyl]-thiocarbamic acid O-methyl ester]
4 | 4 µg/mL (≈ 11.4 µM) | 8 µg/mL (≈ 22.8 µM) | 4 µg/mL (≈ 11.4 µM) | 148 °C | 4 µg/mL (≈ 11.4 µM) | 4 µg/mL (≈ 11.4 µM) | 32 µg/mL (≈ 91.1 µM) |  | COC(=S)NCc1cn(-c2ccc(N3CCOCC3)c(F)c2)nn1 [Example 55, [1-(3-Fluoro-4-morpholin-4-yl-phenyl)-1H-[1,2,3]triazol-4-ylmethyl]-thiocarbamic acid O-methyl ester]
5 | 1 µg/mL (≈ 2.59 µM) | 8 µg/mL (≈ 20.8 µM) | 2 µg/mL (≈ 5.19 µM) | 127 °C | 1 µg/mL (≈ 2.59 µM) | 2 µg/mL (≈ 5.19 µM) | 32 µg/mL (≈ 83 µM) | 2 µg/mL (≈ 5.19 µM) | COC(=S)NCc1cn(-c2cc(F)c(N3CCSCC3)c(F)c2)nn1 [Example 56, [1-(3,5-Difluoro-4-thiomorpholin-4-yl-phenyl)-1H-[1,2,3]triazol-4-ylmethyl]-thiocarbamic acid O-methyl ester]
6 | 1 µg/mL (≈ 2.4 µM) | 4 µg/mL (≈ 9.58 µM) | 2 µg/mL (≈ 4.79 µM) | 162 °C | 2 µg/mL (≈ 4.79 µM) | 2 µg/mL (≈ 4.79 µM) | 32 µg/mL (≈ 76.7 µM) | 4 µg/mL (≈ 9.58 µM) | COC(=S)NCc1cn(-c2cc(F)c(N3CCS(=O)(=O)CC3)c(F)c2)nn1 [Example 58, {1-[4-(1,1-Dioxo-1lambda*6*-thiomorpholin-4-yl)-3,5-difluoro-phenyl]-1H-[1,2,3]triazol-4-ylmethyl}-thiocarbamic acid O-methyl ester]
7 | 2 µg/mL (≈ 5.44 µM) | 8 µg/mL (≈ 21.8 µM) | 4 µg/mL (≈ 10.9 µM) | 168 °C | 2 µg/mL (≈ 5.44 µM) | 8 µg/mL (≈ 21.8 µM) | > 32 µg/mL | 8 µg/mL (≈ 21.8 µM) | COC(=S)NCc1cn(-c2ccc(N3CCSCC3)c(F)c2)nn1 [Example 59, [1-(3-Fluoro-4-thiomorpholin-4-yl-phenyl)-1H-[1,2,3]triazol-4-ylmethyl]-thiocarbamic acid O-methyl ester]
8 | 1 µg/mL (≈ 2.61 µM) | 4 µg/mL (≈ 10.4 µM) | 2 µg/mL (≈ 5.22 µM) | 198 °C | 1 µg/mL (≈ 2.61 µM) | 1 µg/mL (≈ 2.61 µM) | > 32 µg/mL | 2 µg/mL (≈ 5.22 µM) | COC(=S)NCc1cn(-c2ccc(N3CC[S+]([O-])CC3)c(F)c2)nn1 [Example 60, {1-[3-Fluoro-4-(1-oxo-lambda*4*-thiomorpholin-4-yl)-phenyl]-1H-[1,2,3]triazol-4-ylmethyl}-thiocarbamic acid O-methyl ester]
9 | 2 µg/mL (≈ 5.01 µM) | 8 µg/mL (≈ 20 µM) | 4 µg/mL (≈ 10 µM) | 184 °C | 2 µg/mL (≈ 5.01 µM) | 2 µg/mL (≈ 5.01 µM) | > 32 µg/mL | 2 µg/mL (≈ 5.01 µM) | COC(=S)NCc1cn(-c2ccc(N3CCS(=O)(=O)CC3)c(F)c2)nn1 [Example 61, {1-[4-(1,1-Dioxo-1lambda*6*-thiomorpholin-4-yl)-3-fluoro-phenyl]-1H-[1,2,3]triazol-4-ylmethyl}-thiocarbamic acid O-methyl ester]
10 | 1 µg/mL (≈ 2.72 µM) | 1 µg/mL (≈ 2.72 µM) | 1 µg/mL (≈ 2.72 µM) |  | 1 µg/mL (≈ 2.72 µM) | 1 µg/mL (≈ 2.72 µM) | 32 µg/mL (≈ 87.1 µM) | 1 µg/mL (≈ 2.72 µM) | CSC(=S)NCc1cn(-c2ccc(N3CCOCC3)c(F)c2)nn1 [Example 67, [1-(3-Fluoro-4-morpholin-4-yl-phenyl)-1H-[1,2,3]triazol-4-ylmethyl]-dithiocarbamic acid methyl ester]
